Assay results published in patent US9376425B2, “Heterocyclic compounds as MDM2 inhibitors for the treatment of cancer” (AMGEN INC., priority 2011, dated 2016).

Target: T1, human MDM2 (GST-hMDM2 1-188), interaction with biotinylated-p53 (1-83) (Homo sapiens, UniProt Q00987)
T1 construct: Amino acid residues 1-188 of human MDM2 were expressed; made in house; host or cells: Escherichia coli
Assay: improved HTRF assay (HTRF2 assay), inhibition of HDM2-p53 interaction
Assay type: binding
Conditions: 0.2 nM GST-hMDM2, 0.5 nM biotinylated-p53, 100 mM KF
Summary of the method: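 GST-hMDM2 preincubated 20 min at RT with serially diluted compound, then biotinylated p53 (1-83, E. coli) added for 60 min. Detection with SA-XLent, anti-GST cryptate and KF, equilibrated >4 h; final DMSO 2%. TR-FRET read; % inhibition calculated relative to nutlin-3.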

T1 sequence (Q00987 1-188): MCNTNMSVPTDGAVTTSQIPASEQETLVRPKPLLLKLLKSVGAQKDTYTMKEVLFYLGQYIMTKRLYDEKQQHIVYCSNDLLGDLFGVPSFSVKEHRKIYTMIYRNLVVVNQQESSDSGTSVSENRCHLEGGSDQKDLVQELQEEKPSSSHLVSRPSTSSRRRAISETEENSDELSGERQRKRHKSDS

Row | SMILES | IC50 [nM]
1 | CCC[C@@H](CS(=O)(=O)C(C)(C)C)N1C(=O)[C@@H](CC(=O)O)O[C@H](c2cccc(Cl)c2)[C@H]1c1ccc(Cl)cc1 (single isomer, unassigned) [Example 195, 2-((2R,5R,6R)-4-((S)-1-(tert-butylsulfonyl)pentan-2-yl)-6-(3-chlorophenyl)-5-(4-chlorophenyl)-3-oxomorpholin-2-yl)acetic acid or 2-((2S,5R,6R)-4-((S)-1-(tert-butylsulfonyl)pentan-2-yl)-6-(3-chlorophenyl)-5-(4-chlorophenyl)-3-oxomorpholin-2-yl)acetic acid] | 3
2 | CC(C)[C@@H](CN(c1ccccc1F)S(=O)(=O)C(C)C)N1C(=O)[C@@H](CC(=O)O)O[C@H](c2cccc(Cl)c2)[C@H]1c1ccc(Cl)cc1 (single isomer, unassigned) [Example 198, 2-((2R,5R,6R)-6-(3-chlorophenyl)-5-(4-chlorophenyl)-4-((S)-1-(N-(2-fluorophenyl)propan-2-ylsulfonamido)-3-methylbutan-2-yl)-3-oxomorpholin-2-yl)acetic acid or 2-((2S,5R,6R)-6-(3-chlorophenyl)-5-(4-chlorophenyl)-4-((S)-1-(N-(2-fluorophenyl)propan-2-ylsulfonamido)-3-methylbutan-2-yl)-3-oxomorpholin-2-yl)acetic acid] | 1
3 | CC(C)[C@@H](CN(c1ccccc1F)S(=O)(=O)C(C)C)N1C(=O)[C@@H](CC(=O)O)O[C@H](c2cccc(Cl)c2)[C@H]1c1ccc(Cl)cc1 (single isomer, unassigned) [Example 199, 2-((2R,5R,6R)-6-(3-chlorophenyl)-5-(4-chlorophenyl)-4-((S)-1-(N-(2-fluorophenyl)propan-2-ylsulfonamido)-3-methylbutan-2-yl)-3-oxomorpholin-2-yl)acetic acid or 2-((2S,5R,6R)-6-(3-chlorophenyl)-5-(4-chlorophenyl)-4-((S)-1-(N-(2-fluorophenyl)propan-2-ylsulfonamido)-3-methylbutan-2-yl)-3-oxomorpholin-2-yl)acetic acid] | 1
4 | CC(C)[C@@H](CN(c1ccccc1F)S(=O)(=O)C(C)(C)C)N1C(=O)[C@@H](CC(=O)O)O[C@H](c2cccc(Cl)c2)[C@H]1c1ccc(Cl)cc1 (single isomer, unassigned) [Example 200, 2-((2R,5R,6R)-6-(3-chlorophenyl)-5-(4-chlorophenyl)-4-((S)-1-(N-(2-fluorophenyl)-2-methylpropan-2-ylsulfonamido)-3-methylbutan-2-yl)-3-oxomorpholin-2-yl)acetic acid or 2-((2S,5R,6R)-6-(3-chlorophenyl)-5-(4-chlorophenyl)-4-((S)-1-(N-(2-fluorophenyl)-2-methylpropan-2-ylsulfonamido)-3-methylbutan-2-yl)-3-oxomorpholin-2-yl)acetic acid] | 1
5 | CC(C)[C@@H](CN(c1ccccc1F)S(=O)(=O)C(C)(C)C)N1C(=O)[C@@H](CC(=O)O)O[C@H](c2cccc(Cl)c2)[C@H]1c1ccc(Cl)cc1 (single isomer, unassigned) [Example 201, 2-((2R,5R,6R)-6-(3-chlorophenyl)-5-(4-chlorophenyl)-4-((S)-1-(N-(2-fluorophenyl)-2-methylpropan-2-ylsulfonamido)-3-methylbutan-2-yl)-3-oxomorpholin-2-yl)acetic acid or 2-((2S,5R,6R)-6-(3-chlorophenyl)-5-(4-chlorophenyl)-4-((S)-1-(N-(2-fluorophenyl)-2-methylpropan-2-ylsulfonamido)-3-methylbutan-2-yl)-3-oxomorpholin-2-yl)acetic acid] | 2
6 | CC[C@@H](CS(=O)(=O)c1ccccn1)N1C(=O)[C@@H](CC(=O)O)O[C@H](c2cccc(Cl)c2)[C@H]1c1ccc(Cl)cc1 (single isomer, unassigned) [Example 202, 2-((2R,5R,6R)-6-(3-chlorophenyl)-5-(4-chlorophenyl)-3-oxo-4-((S)-1-(pyridin-2-ylsulfonyl)butan-2-yl)morpholin-2-yl)acetic acid or 2-((2S,5R,6R)-6-(3-chlorophenyl)-5-(4-chlorophenyl)-3-oxo-4-((S)-1-(pyridin-2-ylsulfonyl)butan-2-yl)morpholin-2-yl)acetic acid] | 4
